Data: patent US12180196B2, “Azetidine-substituted pyridine and pyrazine compounds as inhibitors of cannabinoid receptor 2” (HOFFMANN-LA ROCHE INC., priority 2018, dated 2024)

These compounds were tested against human CB2 (Homo sapiens (Human), UniProt P34972) (assay: Radioligand binding assay, human CB2 (CNR2) membranes, [3H]-CP-55,940). Settings: HEK cell membranes, [3H]-CP-55,940 radioligand.
Description: Radioligand Binding Assay
The affinity of the compounds of the invention for cannabinoid CB1 receptors was determined using recommended amounts of membrane preparations (PerkinElmer) of human embryonic kidney (HEK) cells expressing the human CNR1 or CNR2 receptors in conjunction with 1.5 or 2.6 nM [3H]-CP-55,940 (Perkin Elmer) as radioligand, respectively. Binding was performed in binding buffer (50 mM Tris, 5 mM MgCl2, 2.5 mM EDTA, and 0.5% (wt/vol) fatty acid free BSA, pH 7.4 for CB1 receptor and 50 mM Tris, 5 mM MgCl2, 2.5 mM EGTA, and 0.1% (wt/vol) fatty acid free BSA, pH 7.4 for CB2 receptor) in a total volume of 0.2 ml for 1 h at 30° C. shaking. The reaction was terminated by rapid filtration through microfiltration plates coated with 0.5% polyethylenimine (UniFilter GF/B filter plate; Packard). Bound radioactivity was analyzed for Ki using nonlinear regression analysis (Activity Base, ID Business Solution, Limited), with the Kd values for [3H]CP55,940 determined from saturation experiments. The compounds of formula (I) show an excellent affinity for the CB2 receptor.
The compounds according to formula (I) have an activity in the above assay (Ki) between 0.5 nM and 10 μM. Particular compounds of formula (I) have an activity in the above assay (Ki) between 0.5 nM and 3 μM. Other particular compounds of formula (I) have an activity in the above assay (Ki) between 0.5 nM and 100 nM.

Sequence of human CB2 (P34972 whole entry): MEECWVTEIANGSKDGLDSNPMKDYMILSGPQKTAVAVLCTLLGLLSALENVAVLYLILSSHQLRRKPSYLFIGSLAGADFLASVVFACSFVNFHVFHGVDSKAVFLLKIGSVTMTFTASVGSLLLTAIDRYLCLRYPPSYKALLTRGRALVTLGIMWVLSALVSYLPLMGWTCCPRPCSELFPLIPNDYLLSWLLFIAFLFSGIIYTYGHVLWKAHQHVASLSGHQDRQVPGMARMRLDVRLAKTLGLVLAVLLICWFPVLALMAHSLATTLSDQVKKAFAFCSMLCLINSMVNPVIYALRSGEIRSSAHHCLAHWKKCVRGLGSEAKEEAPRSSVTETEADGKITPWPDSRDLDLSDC

Ki [nM] | Compound
447 | NC(=O)CC1(NC(=O)c2ccc(N3CC(OCCF)C3)c(OCC3CC3)n2)COC1 [Example 5, N-[3-(2-Amino-2-oxoethyl)oxetan-3-yl]-6-(cyclopropylmethoxy)-5-[3-(2-fluoroethoxy)azetidin-1-yl]pyridine-2-carboxamide]
6 | CCOC(=O)C(CC)(CC)NC(=O)c1ccc(N2CC(F)C2)c(OCC2CC2)n1 [Example 4, Ethyl 2-{[6-(cyclopropylmethoxy)-5-(3-fluoroazetidin-1-yl)pyridine-2-carbonyl]amino}-2-ethylbutanoate]
5 | CCOC(=O)C(CC)(CC)NC(=O)c1ccc(N2CC(OCCF)C2)c(OCC2CC2)n1 [Example 2, Ethyl 2-({6-(cyclopropylmethoxy)-5-[3-(2-fluoroethoxy)azetidin-1-yl]pyridine-2-carbonyl}amino)-2-ethylbutanoate]

Compound | Ki [nM]
CCOC(=O)C(CC)(CC)NC(=O)c1ccc(N2CC(OCCCF)C2)c(OCC2CC2)n1 [Example 1, Ethyl 2-({6-(cyclopropylmethoxy)-5-[3-(3-fluoropropoxy)azetidin-1-yl]pyridine-2-carbonyl}amino)-2-ethylbutanoate] | 19
